Assays:
gingival fibroblasts = test: Cellular activity promoting effect in gingival fibroblasts (MTT assay); format: cell-based, human; conditions: cigarette smoke condensate 100 μg/mL, syringaresinol 50 or 100 μg/mL, 2 days, FIG. 3
Experimental: Gingival fibroblasts subcultured for 5-6 times in substantially the same manner as in Test Example 1 were seeded onto a 24-well plate, with 1×10^4 cells per well. After culturing for 1 day, cigarette smoke condensate was added with a concentration of 100 μg/mL in substantially the same manner as in Test Example 1 and the syringaresinol obtained in Example was added after dissolving in DMSO to a concentration of 50 or 100 μg/mL. A control group was treated with DMSO corresponding to 1/1000 of the volume of the culture medium. Also, a group which was treated with neither the cigarette smoke condensate nor the test substance was prepared. After culturing for 2 days and adding 300 μL of 3-(4,5-dimethylthiazol-2-yl)-2,5-diphenyltetrazolium bromide (MTT; Sigma, USA) dissolved in physiological saline per each well, the cells were cultured for 4 hours. After removing the culture medium and dissolving formazan crystals by adding 200 μL of dimethyl sulfoxide (DMSO; Junsei, Japan), absorbance was measured at 540 nm using an ELISA reader (Spectra MAX 250, Molecular Devices Co., USA). Each experiment was repeated 3 times.

SIRT1 = SIRT1 expression promoting effect in aged human retinal epithelial cells (western blotting); format: cell-based; conditions: aged ARPE-19 cells (5 PDL to 15 PDL), FIG. 14
Experimental: The SIRT1 gene expression promoting effect of syringaresinol in aged human retinal epithelial cells was evaluated as follows. Human retinal […] cell line ARPE-19 was purchased from ATCC (Manassa, Va., USA) and cultured in a 5% CO2 incubator using DMEM (Gibco BRL, Grand Island, N.Y., USA) containing 10% bovine serum, 1% penicillin/streptomycin, amphotericin B and an antifungal agent until 70% confluency. […] The population doubling level (PDL) was calculated according to the following equation for each generation until the cell growth was stopped. The PDL value is higher in aged cells. PDL=(Log10Y−Log10X)/Log102 Y: number of cells at the end of the generation X: number of cells at the beginning of the generation 5 PDL cells were treated with syringaresinol dissolved in DMSO at a concentration of 50 or 100 μM every other day while inducing aging to 15 PDL cells. The cells of a negative control were treated with DMSO corresponding to 1/1000 of the volume of the culture medium. […] The isolated protein was quantitated using the BCA assay kit (Pierce, Rockford, USA) and 30 μg was subjected to western blotting using the iBlot Dry blotting system (Invitrogen, Carlsbad, Calif., USA). The SIRT1 protein expression level was measured using anti-SIRT1 antibody (Santa Cruz Biotechnology, Santa Cruz, Calif., USA).

ACO, CPT1, mCAD = test: Expression of fatty acid oxidation-related genes (qRT-PCR); format: cell-based, human; conditions: 50 μM, vs DMSO control
Experimental: Human adipocytes, hepatocytes and myocytes were treated with 50 μM syringaresinol and washed with PBS in substantially the same manner as in Test Example 3. RNA was extracted from the cells and cDNA was synthesized therefrom. The change in expression pattern of fatty acid synthesis-related genes such as ADD1/SREBP1c, ACC, FAS, etc. and fatty acid oxidation-related genes such as ACO, CPT1, mCAD, etc. was measured by qRT-PCR.

## COc1cc(C2OCC3C(c4cc(OC)c(O)c(OC)c4)OCC23)cc(OC)c1O (stereo not drawn) [syringaresinol]
Gingival fibroblasts
  cellular activity (MTT, absorbance at 540 nm): recovered cellular activity, which had been decreased due to smoking, to a level substantially comparable to the normal level
SIRT1; 100 μM every other day
  SIRT1 protein expression: increased SIRT1 expression to a level comparable to that of young retinal epithelial cells
SIRT1; 50 or 100 μM every other day
  SIRT1 protein expression: increased SIRT1 expression, which had been decreased in aged retinal cells, in a concentration-dependent manner
ACO, CPT1, mCAD; human adipocytes, FIG. 8
  expression of fatty acid oxidation promoting genes: increased the expression of fatty acid oxidation promoting genes
ACO, CPT1, mCAD; human hepatocytes, FIG. 9
  expression of fatty acid oxidation promoting genes: increased the expression of fatty acid oxidation promoting genes
ACO, CPT1, mCAD; human myocytes, FIG. 10
  expression of fatty acid oxidation promoting genes: increased the expression of fatty acid oxidation promoting genes

Source: patent US9999611B2, “SIRT 1 activator including syringaresinol” (AMOREPACIFIC CORPORATION, priority 2011, dated 2018)
